Read-outs that look alike come from different tables or passages of the source.
Assays:
Assay in all cases: MTT cell proliferation assay
Type in all cases: cell-based
MS751 cells = conditions: Homo sapiens, MS751, MS751 cells, approximately 64-72 hours incubation
Method in brief: (§1)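 Cytotoxicity was measured by MTT: OD490 of the solubilized formazan after roughly 4 h with MTT reagent, reported as mean percent inhibition relative to the negative control. Test compounds covered eight concentrations between 1 nM and 30 μM, added to 5,000–10,000 cells per well that had attached overnight.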

3T3 cells = conditions: Mus musculus, NIH3T3, approximately 64-72 hours incubation
Method in brief: as §1

Z138 cells = conditions: Homo sapiens, Z-138, Z138 cells, approximately 64-72 hours incubation
Method in brief: as §1

[1] = read-out: MTT Assay IC50 MS-751
[2] = read-out: MTT Assay IC50, MS-751
[3] = read-out: MTT Assay IC50, Z-138

Structure (SMILES): Nc1ccc(/C=C/C(=O)NCc2cc3cc(-c4ccc(C(=O)N5CCC[C@H]5C(F)(F)F)cn4)cc(C(F)(F)F)c3o2)cn1 [Compound 622, (S,E)-3-(6-aminopyridin-3-yl)-N-((7-(trifluoromethyl)-5-(5-(2-(trifluoromethyl)pyrrolidine-1-carbonyl)pyridin-2-yl)benzofuran-2-yl)methyl)acrylamide]
- IC50 (MS751 cells; [1]): > 10000 nM
- IC50 (3T3 cells; read-out: MTT Assay IC50 3T3): > 10000 nM
- IC50 (Z138 cells; read-out: MTT Assay IC50 Z-138): 5000 to 10000 nM

Structure (SMILES): [2H]C([2H])([2H])Oc1cc(-c2ccc(C(=O)N3CCC(F)(F)CC3)cn2)cc2cc(CNC(=O)/C=C/c3ccc(N)nc3)oc12 [Compound 660, (E)-3-(6-aminopyridin-3-yl)-N-((5-(5-(4,4-difluoropiperidine-1-carbonyl)pyridin-2-yl)-7-(methoxy-d3)benzofuran-2-yl)methyl)acrylamide]
- IC50 (MS751 cells; [2]): < 100 nM
- IC50 (3T3 cells; read-out: MTT Assay IC50, 3T3): > 10000 nM
- IC50 (Z138 cells; [3]): < 100 nM

Structure (SMILES): O=C(/C=C/c1cccnc1)NCc1cc2cc(-c3ccc(S(=O)(=O)N4CCC(F)(F)CC4)cc3)cc(C(F)(F)F)c2o1 [Compound 680, (E)-N-((5-(4-((4,4-difluoropiperidin-1-yl)sulfonyl)phenyl)-7-(trifluoromethyl)benzofuran-2-yl)methyl)-3-(pyridin-3-yl)acrylamide]
- IC50 (MS751 cells; [2]): 100 to 5000 nM
- IC50 (3T3 cells; read-out: MTT Assay IC50, 3T3): > 10000 nM
- IC50 (Z138 cells; [3]): 100 to 5000 nM

Structure (SMILES): O=C(/C=C/c1ccncc1)NCc1cc2cc(-c3ccc(C(=O)N4CCOCC4)cc3)cc(Cl)c2o1 [Compound 535, (E)-N-((7-Chloro-5-(4-(morpholine-4-carbonyl)phenyl)benzofuran-2-yl)methyl)-3-(pyridin-4-yl)acrylamide]
- IC50 (MS751 cells; [1]): > 10000 nM
- IC50 (3T3 cells; read-out: MTT Assay IC50 3T3): > 10000 nM
- IC50 (Z138 cells; read-out: MTT Assay IC50 Z-138): > 10000 nM

Structure (SMILES): CN1CCN(C(=O)c2ccc(-c3cc(Cl)c4oc(CNC(=O)/C=C/c5ccc(N)nc5)cc4c3)nc2)CC1 [Compound 584, (E)-3-(6-aminopyridin-3-yl)-N-((7-chloro-5-(5-(4-methylpiperazine-1-carbonyl)pyridin-2-yl)benzofuran-2-yl)methyl)acrylamide]
- IC50 (MS751 cells; [1]): < 100 nM
- IC50 (3T3 cells; read-out: MTT Assay IC50 3T3): 5000 to 10000 nM
- IC50 (Z138 cells; read-out: MTT Assay IC50 Z-138): < 100 nM

Structure (SMILES): Nc1ccc(/C=C/C(=O)NCc2cc3cc(-c4ccc(C(=O)N5CCC(F)(F)CC5)cc4)cc(-c4ccc(F)nc4)c3o2)cn1 [Compound 735, (E)-3-(6-aminopyridin-3-yl)-N-((5-(4-(4,4-difluoropiperidine-1-carbonyl)phenyl)-7-(6-fluoropyridin-3-yl)benzofuran-2-yl)methyl)acrylamide]
- IC50 (MS751 cells; [2]): < 100 nM
- IC50 (3T3 cells; read-out: MTT Assay IC50, 3T3): 100 to 5000 nM
- IC50 (Z138 cells; [3]): < 100 nM

Structure (SMILES): Nc1ccc(/C=C/C(=O)NCc2cc3cc(-c4ccc(C(=O)N5CC[C@H](F)C5)cc4)cc(Cl)c3o2)cn1 [Compound 528, (S,E)-3-(6-aminopyridin-3-yl)-N-((7-chloro-5-(4-(3-fluoropyrrolidine-1-carbonyl)phenyl)benzofuran-2-yl)methyl)acrylamide]
- IC50 (MS751 cells; [1]): > 10000 nM
- IC50 (3T3 cells; read-out: MTT Assay IC50 3T3): > 10000 nM
- IC50 (Z138 cells; read-out: MTT Assay IC50 Z-138): > 10000 nM

Structure (SMILES): Nc1ccc(/C=C/C(=O)NCc2cc3cc(-c4ccc(C(=O)N5CCC(F)(F)CC5)cc4)cc(-c4cccc(F)c4)c3o2)cn1 [Compound 726, (E)-3-(6-aminopyridin-3-yl)-N-((5-(4-(4,4-difluoropiperidine-1-carbonyl)phenyl)-7-(3-fluorophenyl)benzofuran-2-yl)methyl)acrylamide]
- IC50 (MS751 cells; [2]): < 100 nM
- IC50 (3T3 cells; read-out: MTT Assay IC50, 3T3): 100 to 5000 nM
- IC50 (Z138 cells; [3]): < 100 nM

Structure (SMILES): Nc1ccc(/C=C/C(=O)NCc2cc3cc(-c4ccc(C(=O)N5CCC(F)(F)CC5)cn4)cc(C(F)(F)F)c3o2)cc1F [Compound 676, (E)-3-(4-amino-3-fluorophenyl)-N-((5-(5-(4,4-difluoropiperidine-1-carbonyl)pyridin-2-yl)-7-(trifluoromethyl)benzofuran-2-yl)methyl)acrylamide]
- IC50 (MS751 cells; [2]): > 10000 nM
- IC50 (3T3 cells; read-out: MTT Assay IC50, 3T3): > 10000 nM
- IC50 (Z138 cells; [3]): > 10000 nM

Structure (SMILES): Nc1ccc(/C=C/C(=O)NCc2cc3cc(-c4ccc(C(=O)N5CC6(C5)CC(F)(F)C6)cn4)cc(C(F)(F)F)c3o2)cn1 [Compound 661, (E)-3-(6-aminopyridin-3-yl)-N-((5-(5-(6,6-difluoro-2-azaspiro[3.3]heptane-2-carbonyl)pyridin-2-yl)-7-(trifluoromethyl)benzofuran-2-yl)methyl)acrylamide]
- IC50 (MS751 cells; [2]): 100 to 5000 nM
- IC50 (3T3 cells; read-out: MTT Assay IC50, 3T3): > 10000 nM
- IC50 (Z138 cells; [3]): 100 to 5000 nM

Structure (SMILES): Nc1ccc(/C=C/C(=O)NCc2cc3cc(-c4ccc(C(=O)N5CC6(COC6)C5)cc4)cc(C(F)(F)F)c3o2)cn1 [Compound 611, (E)-N-((5-(4-(2-oxa-6-azaspiro[3.3]heptane-6-carbonyl)phenyl)-7-(trifluoromethyl)benzofuran-2-yl)methyl)-3-(6-aminopyridin-3-yl)acrylamide]
- IC50 (MS751 cells; [1]): < 100 nM
- IC50 (3T3 cells; read-out: MTT Assay IC50 3T3): > 10000 nM
- IC50 (Z138 cells; read-out: MTT Assay IC50 Z-138): < 100 nM

Structure (SMILES): CC1(F)CCN(C(=O)c2ccc(-c3cc(C(F)(F)F)c4oc(CNC(=O)/C=C/c5ccc(N)nc5)cc4c3)nc2)C1 (single isomer, unassigned) [Compound 654, (E)-3-(6-aminopyridin-3-yl)-N-((5-(5-(3-fluoro-3-methylpyrrolidine-1-carbonyl)pyridin-2-yl)-7-(trifluoromethyl)benzofuran-2-yl)methyl)acrylamide]
- IC50 (MS751 cells; [1]): < 100 nM
- IC50 (3T3 cells; read-out: MTT Assay IC50 3T3): > 10000 nM
- IC50 (Z138 cells; read-out: MTT Assay IC50 Z-138): < 100 nM

Structure (SMILES): O=C(/C=C/c1cccnc1)NCc1cc2cc(-c3ccc(C(=O)N4CCC(F)(F)CC4)cn3)cc(-c3ccncc3)c2o1 [Compound 674]
- IC50 (MS751 cells; [2]): < 100 nM
- IC50 (3T3 cells; read-out: MTT Assay IC50, 3T3): < 100 nM
- IC50 (Z138 cells; [3]): < 100 nM

Structure (SMILES): Nc1ccc(/C=C/C(=O)NCc2cc3cc(-c4ccc(C(=O)N5CC(O)(C(F)(F)F)C5)cn4)cc(C(F)(F)F)c3o2)cn1 [Compound 747, (E)-3-(6-aminopyridin-3-yl)-N-((5-(5-(3-hydroxy-3-(trifluoromethyl)azetidine-1-carbonyl)pyridin-2-yl)-7-(trifluoromethyl)benzofuran-2-yl)methyl)acrylamide]
- IC50 (MS751 cells; [2]): 100 to 5000 nM
- IC50 (3T3 cells; read-out: MTT Assay IC50, 3T3): > 10000 nM
- IC50 (Z138 cells; [3]): 100 to 5000 nM

Structure (SMILES): COc1cc(-c2ccc(C(=O)N3CCC(F)(F)CC3)cn2)cc2cc(CNC(=O)/C=C/c3ccc(N)nc3)oc12 [Compound 651, (E)-3-(6-aminopyridin-3-yl)-N-((5-(5-(4,4-difluoropiperidine-1-carbonyl)pyridin-2-yl)-7-methoxybenzofuran-2-yl)methyl)acrylamide]
- IC50 (MS751 cells; [1]): < 100 nM
- IC50 (3T3 cells; read-out: MTT Assay IC50 3T3): > 10000 nM
- IC50 (Z138 cells; read-out: MTT Assay IC50 Z-138): < 100 nM

Structure (SMILES): Nc1ccc(/C=C/C(=O)NCc2cc3cc(-c4ccc(Oc5ccc(F)nc5)cc4)cc(-c4ccc(F)cc4)c3o2)cn1 [Compound 767, (E)-3-(6-aminopyridin-3-yl)-N-((7-(4-fluorophenyl)-5-(4-((6-fluoropyridin-3-yl)oxy)phenyl)benzofuran-2-yl)methyl)acrylamide]
- IC50 (MS751 cells; [2]): 100 to 5000 nM
- IC50 (3T3 cells; read-out: MTT Assay IC50, 3T3): > 10000 nM
- IC50 (Z138 cells; [3]): < 100 nM

Structure (SMILES): O=C(/C=C/c1ccccn1)NCc1cc2cc(-c3ccc(C(=O)N4CCOCC4)cc3)cc(Cl)c2o1 [Compound 539, (E)-N-((7-chloro-5-(4-(morpholine-4-carbonyl)phenyl)benzofuran-2-yl)methyl)-3-(pyridin-2-yl)acrylamide]
- IC50 (MS751 cells; [1]): 100 to 5000 nM
- IC50 (3T3 cells; read-out: MTT Assay IC50 3T3): > 10000 nM
- IC50 (Z138 cells; read-out: MTT Assay IC50 Z-138): 100 to 5000 nM

Structure (SMILES): Nc1ccc(/C=C/C(=O)NCc2cc3cc(-c4ccc(C(=O)c5ccc(F)cc5)cn4)cc(-c4ccc(F)cc4)c3o2)cn1 [Compound 703, (E)-3-(6-aminopyridin-3-yl)-N-((5-(5-(4-fluorobenzoyl)pyridin-2-yl)-7-(4-fluorophenyl)benzofuran-2-yl)methyl)acrylamide]
- IC50 (MS751 cells; [2]): 100 to 5000 nM
- IC50 (3T3 cells; read-out: MTT Assay IC50, 3T3): 5000 to 10000 nM
- IC50 (Z138 cells; [3]): < 100 nM

Structure (SMILES): O=C(/C=C/c1cccnc1)NCc1cc2cc(-c3ccc(C(=O)N4CC5(COC5)C4)cn3)cc(C(F)(F)F)c2o1 [Compound 689, (E)-N-((5-(5-(2-oxa-6-azaspiro[3.3]heptane-6-carbonyl)pyridin-2-yl)-7-(trifluoromethyl)benzofuran-2-yl)methyl)-3-(pyridin-3-yl)acrylamide]
- IC50 (MS751 cells; [2]): < 100 nM
- IC50 (3T3 cells; read-out: MTT Assay IC50, 3T3): 100 to 5000 nM
- IC50 (Z138 cells; [3]): < 100 nM

Structure (SMILES): O=C(/C=C/c1cccnc1)NCc1cc2cc(-c3ccc(C(=O)N4CCC(F)(F)CC4)cn3)cc(-c3ccc(F)cc3)c2o1 [Compound 719, (E)-N-((5-(5-(4,4-difluoropiperidine-1-carbonyl)pyridin-2-yl)-7-(4-fluorophenyl)benzofuran-2-yl)methyl)-3-(pyridin-3-yl)acrylamide]
- IC50 (MS751 cells; [2]): < 100 nM
- IC50 (3T3 cells; read-out: MTT Assay IC50, 3T3): < 100 nM
- IC50 (Z138 cells; [3]): < 100 nM

Structure (SMILES): Nc1ccc(/C=C/C(=O)NCc2cc3cc(-c4ccc(C(=O)NC5(C(F)(F)F)CC5)cn4)cc(C(F)(F)F)c3o2)cn1 [Compound 619, (E)-6-(2-((3-(6-aminopyridin-3-yl)acrylamido)methyl)-7-(trifluoromethyl)benzofuran-5-yl)-N-(1-(trifluoromethyl)cyclopropyl)nicotinamide]
- IC50 (MS751 cells; [1]): 100 to 5000 nM
- IC50 (3T3 cells; read-out: MTT Assay IC50 3T3): > 10000 nM
- IC50 (Z138 cells; read-out: MTT Assay IC50 Z-138): 100 to 5000 nM

Structure (SMILES): Nc1ccc(/C=C/C(=O)NCc2cc3cc(-c4ccc(C(=O)N5CCC(F)(F)CC5)cc4)cc(-c4ccc(F)cc4F)c3o2)cn1 [Compound 736, (E)-3-(6-aminopyridin-3-yl)-N-((7-(2,4-difluorophenyl)-5-(4-(4,4-difluoropiperidine-1-carbonyl)phenyl)benzofuran-2-yl)methyl)acrylamide]
- IC50 (MS751 cells; [2]): < 100 nM
- IC50 (3T3 cells; read-out: MTT Assay IC50, 3T3): 100 to 5000 nM
- IC50 (Z138 cells; [3]): < 100 nM

Structure (SMILES): CC1(O)CCN(C(=O)c2ccc(-c3cc(C(F)(F)F)c4oc(CNC(=O)/C=C/c5ccc(N)nc5)cc4c3)nc2)CC1 [Compound 620, (E)-3-(6-aminopyridin-3-yl)-N-((5-(5-(4-hydroxy-4-methylpiperidine-1-carbonyl)pyridin-2-yl)-7-(trifluoromethyl)benzofuran-2-yl)methyl)acrylamide]
- IC50 (MS751 cells; [1]): < 100 nM
- IC50 (3T3 cells; read-out: MTT Assay IC50 3T3): > 10000 nM
- IC50 (Z138 cells; read-out: MTT Assay IC50 Z-138): < 100 nM

— US12331040B2 (Karyopharm Therapeutics Inc., priority 2013, dated 2025)
